Measured values reported in PubChem BioAssay (NCI).
Values joined by “and” are separate entries in the source; they are usually repeats but may differ in a detail not shown here. Identical values can stand only once.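 48-hour exposure; five concentrations; linearly interpolated endpoints. GI50 = concentration required for 50% inhibition of growth. Definition used: TGI = concentration required for complete inhibition of growth.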

Key:
Test in all cases: NCI-60 cell line screen, 48 h
786-0 renal = system: 786-0 renal
A549 NSCLC = system: A549 NSCLC
ACHN renal = system: ACHN renal
BT-549 breast = system: BT-549 breast
CAKI-1 renal = system: CAKI-1 renal
CCRF-CEM leukemia = system: CCRF-CEM leukemia
COLO 205 colon = system: COLO 205 colon
DU-145 prostate = system: DU-145 prostate
EKVX NSCLC = system: EKVX NSCLC
HCC-2998 colon = system: HCC-2998 colon
HCT-116 colon = system: HCT-116 colon
HCT-15 colon = system: HCT-15 colon
HL-60(TB) leukemia = system: HL-60(TB) leukemia
HOP-62 NSCLC = system: HOP-62 NSCLC
HOP-92 NSCLC = system: HOP-92 NSCLC
HS 578T breast = system: HS 578T breast
HT29 colon = system: HT29 colon
IGROV1 ovarian = system: IGROV1 ovarian
K-562 leukemia = system: K-562 leukemia
KM12 colon = system: KM12 colon
LOX IMVI melanoma = system: LOX IMVI melanoma
M14 melanoma = system: M14 melanoma
MCF7 breast = system: MCF7 breast
MDA-MB-231 breast = system: MDA-MB-231 breast
MOLT-4 leukemia = system: MOLT-4 leukemia
NCI-H226 lung = system: NCI-H226 lung
NCI-H23 lung = system: NCI-H23 lung
NCI-H460 lung = system: NCI-H460 lung
NCI-H522 lung = system: NCI-H522 lung
NCI/ADR-RES ovarian = system: NCI/ADR-RES ovarian
OVCAR-3 ovarian = system: OVCAR-3 ovarian
OVCAR-4 ovarian = system: OVCAR-4 ovarian
OVCAR-5 ovarian = system: OVCAR-5 ovarian
OVCAR-8 ovarian = system: OVCAR-8 ovarian
PC-3 prostate = system: PC-3 prostate
RPMI-8226 leukemia = system: RPMI-8226 leukemia
RXF 393 renal = system: RXF 393 renal
SF-268 CNS = system: SF-268 CNS
SF-295 CNS = system: SF-295 CNS
SF-539 CNS = system: SF-539 CNS
SK-MEL-2 melanoma = system: SK-MEL-2 melanoma
SK-MEL-28 melanoma = system: SK-MEL-28 melanoma
SK-MEL-5 melanoma = system: SK-MEL-5 melanoma
SK-OV-3 ovarian = system: SK-OV-3 ovarian
SN12C renal = system: SN12C renal
SNB-19 CNS = system: SNB-19 CNS
SNB-75 CNS = system: SNB-75 CNS
SR leukemia = system: SR leukemia
SW-620 colon = system: SW-620 colon
T-47D breast = system: T-47D breast
TK-10 renal = system: TK-10 renal
U251 CNS = system: U251 CNS
UACC-257 melanoma = system: UACC-257 melanoma
UACC-62 melanoma = system: UACC-62 melanoma
UO-31 renal = system: UO-31 renal

With CC(=O)O[C@H]1C(=O)[C@@]2(C)[C@H]([C@H](OC(=O)c3ccccc3)[C@]3([O-])C[C@H](OC(=O)[C@H]([O-])[C@@H](NC(=O)c4ccccc4)c4ccccc4)C(C)=C1C3(C)C)[C@]1(OC(C)=O)CO[C@@H]1C[C@@H]2[O-].[Fe+3] the GI50 (786-0 renal) was 261 nM and 2240 nM, the TGI (786-0 renal) was 49100 nM and > 100000 nM and the GI50 (A549 NSCLC) was 33.5 nM and 85.2 nM. The TGI (A549 NSCLC) was 65000 nM and > 100000 nM, the GI50 (ACHN renal) was 2480 nM and 2960 nM and the TGI (ACHN renal) was 65000 nM and > 100000 nM. The GI50 (BT-549 breast) was 309 nM, the GI50 (CAKI-1 renal) was 2410 nM and 3530 nM and the TGI (CAKI-1 renal) was 54500 nM and > 100000 nM. The GI50 (CCRF-CEM leukemia) was 249 nM and 876 nM, the TGI (CCRF-CEM leukemia) was 65000 nM and 68900 nM and the GI50 (COLO 205 colon) was 36.5 nM and 43.2 nM. The TGI (COLO 205 colon) was 226 nM and 508 nM, the GI50 (DU-145 prostate) was 68 nM and 59.5 nM and the TGI (DU-145 prostate) was 272 nM and 595 nM. For the same compound, the TGI (EKVX NSCLC) was 65000 nM and > 100000 nM, the GI50 (HCC-2998 colon) was 36.5 nM and the TGI (HCC-2998 colon) was 295 nM. For the same compound, the GI50 (HCT-116 colon) was 25.3 nM and 38.8 nM, the GI50 (HCT-15 colon) was 1970 nM and 2330 nM and the TGI (HCT-15 colon) was 16200 nM and 17000 nM. The GI50 (HL-60(TB) leukemia) was 63.9 nM, the TGI (HL-60(TB) leukemia) was 301 nM and the TGI (HOP-62 NSCLC) was 10500 nM and 48800 nM. The GI50 (HOP-92 NSCLC) was > 65000 nM and 10500 nM, the TGI (HOP-92 NSCLC) was > 65000 nM and 35700 nM and the GI50 (HS 578T breast) was 56.2 nM and 141 nM. For the same compound, the GI50 (HT29 colon) was 23.6 nM and 32.8 nM, the GI50 (IGROV1 ovarian) was 42.6 nM and 211 nM and the TGI (IGROV1 ovarian) was 65000 nM and 72500 nM. For the same compound, the GI50 (K-562 leukemia) was 83.9 nM and 98.8 nM, the TGI (K-562 leukemia) was 65000 nM and > 100000 nM and the GI50 (KM12 colon) was 32.4 nM and 62.3 nM. The TGI (KM12 colon) was 210 nM and 1210 nM, the GI50 (LOX IMVI melanoma) was 21.9 nM and 107 nM and the GI50 (M14 melanoma) was 110 nM and 63.7 nM. The TGI (M14 melanoma) was 491 nM and 391 nM, the GI50 (MCF7 breast) was 22.6 nM and 31.5 nM and the TGI (MCF7 breast) was 65000 nM and 32700 nM. The GI50 (MDA-MB-231 breast) was 746 nM and 732 nM, the TGI (MDA-MB-231 breast) was 63900 nM and 32200 nM and the TGI (MOLT-4 leukemia) was 65000 nM and > 100000 nM. For the same compound, the GI50 (NCI-H226 lung) was 227 nM and 768 nM, the TGI (NCI-H226 lung) was 65000 nM and 70700 nM and the GI50 (NCI-H23 lung) was 68.5 nM and 164 nM. The TGI (NCI-H23 lung) was 65000 nM and > 100000 nM, the GI50 (NCI-H460 lung) was 26.6 nM and 49.8 nM and the TGI (NCI-H460 lung) was 65000 nM and 25500 nM. It also gave a GI50 (NCI-H522 lung) of 38.5 nM, a TGI (NCI-H522 lung) of 12800 nM and a GI50 (NCI/ADR-RES ovarian) of 19200 nM. For the same compound, the TGI (NCI/ADR-RES ovarian) was 15900 nM and > 100000 nM, the GI50 (OVCAR-3 ovarian) was 21.5 nM and 43.4 nM and the GI50 (OVCAR-4 ovarian) was 719 nM. The TGI (OVCAR-4 ovarian) was > 100000 nM, the GI50 (OVCAR-5 ovarian) was 880 nM and the TGI (OVCAR-5 ovarian) was 11100 nM and > 100000 nM. The GI50 (OVCAR-8 ovarian) was 97.1 nM and 72.1 nM, the TGI (OVCAR-8 ovarian) was 15500 nM and 27300 nM and the GI50 (PC-3 prostate) was 235 nM and 219 nM. The TGI (PC-3 prostate) was 65000 nM and > 100000 nM, the GI50 (RPMI-8226 leukemia) was 29.4 nM and 74 nM and the TGI (RPMI-8226 leukemia) was 65000 nM and > 100000 nM. The GI50 (RXF 393 renal) was 117 nM and 95.5 nM, the GI50 (SF-268 CNS) was 104 nM and 165 nM and the TGI (SF-268 CNS) was 45300 nM and > 100000 nM. For the same compound, the GI50 (SF-295 CNS) was 83.6 nM, the TGI (SF-295 CNS) was > 100000 nM and the GI50 (SF-539 CNS) was 29 nM and 51.9 nM. For the same compound, the TGI (SF-539 CNS) was 549 nM and 486 nM, the GI50 (SK-MEL-2 melanoma) was 110 nM and 161 nM and the GI50 (SK-MEL-28 melanoma) was 13200 nM. The TGI (SK-MEL-28 melanoma) was 64800 nM, the GI50 (SK-MEL-5 melanoma) was 52.1 nM and 68.3 nM and the TGI (SK-MEL-5 melanoma) was 65000 nM and 19600 nM. For the same compound, the GI50 (SK-OV-3 ovarian) was 72.4 nM and 142 nM, the TGI (SK-OV-3 ovarian) was 11900 nM and > 100000 nM and the TGI (SN12C renal) was 65000 nM and > 100000 nM. For the same compound, the GI50 (SNB-19 CNS) was 281 nM and 534 nM, the TGI (SNB-19 CNS) was 65000 nM and > 100000 nM and the GI50 (SNB-75 CNS) was 22.2 nM and 23 nM. The TGI (SNB-75 CNS) was 274 nM and 505 nM, the GI50 (SR leukemia) was 26.8 nM and 199 nM and the GI50 (SW-620 colon) was 35.2 nM and 66.4 nM. For the same compound, the TGI (SW-620 colon) was 19200 nM and 47400 nM, the GI50 (T-47D breast) was 80.2 nM and 74.4 nM and the TGI (T-47D breast) was 65000 nM and 95700 nM. For the same compound, the GI50 (TK-10 renal) was 591 nM and 658 nM, the TGI (TK-10 renal) was 65000 nM and > 100000 nM and the GI50 (U251 CNS) was 35.7 nM and 64.7 nM. The TGI (U251 CNS) was 7380 nM and 17200 nM, the TGI (UACC-257 melanoma) was 65000 nM and > 100000 nM and the GI50 (UACC-62 melanoma) was 238 nM and 87.5 nM. The TGI (UACC-62 melanoma) was 65000 nM and 15800 nM, the GI50 (UO-31 renal) was 4450 nM and 4870 nM and the TGI (UO-31 renal) was 65000 nM and > 100000 nM.
